Test results published in the NIST ThermoML archive (doi:10.1021/je800248w).

How the values were obtained:
[1] = excess molar enthalpy (molar enthalpy of mixing); xn = mol fraction of the nth substance listed; conditions: 101 kPa, Liquid, Calvet calorimetry
[2] = molar heat capacity at constant pressure; xn = mol fraction of the nth substance listed; conditions: 101.3 kPa, Liquid, Small sample (50 mg) DSC

CCn1cc[n+](C)c1.O=S(=O)([O-])C(F)(F)F [1-ethyl-3-methylimidazolium trifluoromethanesulfonate] + O
Conditions	excess molar enthalpy [kcal/mol]	molar heat capacity at constant pressure [J/K/mol]
[1], 313.13 K, x2 = 0.2487	0.168	–
[1], 313.13 K, x2 = 0.2495	0.168	–
[1], 313.13 K, x2 = 0.4958	0.269	–
[1], 313.13 K, x2 = 0.4972	0.269	–
[1], 313.13 K, x2 = 0.7477	0.242	–
[1], 323.12 K, x2 = 0.2476	0.166	–
[1], 323.12 K, x2 = 0.2495	0.167	–
[1], 323.12 K, x2 = 0.4959	0.276	–
[1], 323.12 K, x2 = 0.4969	0.275	–
[1], 323.12 K, x2 = 0.7471	0.259	–
[1], 323.12 K, x2 = 0.7474	0.258	–
[1], 333.13 K, x2 = 0.2482	0.167	–
[1], 333.13 K, x2 = 0.2485	0.167	–
[1], 333.13 K, x2 = 0.495	0.283	–
[1], 333.13 K, x2 = 0.4986	0.284	–
[1], 333.13 K, x2 = 0.7477	0.277	–
[1], 333.13 K, x2 = 0.7479	0.276	–
[1], 348.12 K, x2 = 0.2497	0.168	–
[1], 348.12 K, x2 = 0.2514	0.169	–
[1], 348.12 K, x2 = 0.4967	0.297	–
[1], 348.12 K, x2 = 0.4985	0.298	–
[1], 348.12 K, x2 = 0.748	0.308	–
[1], 348.12 K, x2 = 0.7481	0.307	–
[2], 283.15 K, x2 = 0	–	353
[2], 283.15 K, x2 = 0.2259	–	283
[2], 283.15 K, x2 = 0.4351	–	226
[2], 283.15 K, x2 = 0.6152	–	181
[2], 283.15 K, x2 = 0.7835	–	135
[2], 283.15 K, x2 = 0.8614	–	114
[2], 283.15 K, x2 = 0.9353	–	94
[2], 283.15 K, x2 = 0.9712	–	80
[2], 283.15 K, x2 = 0.9924	–	76
[2], 293.15 K, x2 = 0	–	358
[2], 293.15 K, x2 = 0.2259	–	287
[2], 293.15 K, x2 = 0.4351	–	230
[2], 293.15 K, x2 = 0.6152	–	184
[2], 293.15 K, x2 = 0.7835	–	137
[2], 293.15 K, x2 = 0.8614	–	115
[2], 293.15 K, x2 = 0.9353	–	95
[2], 293.15 K, x2 = 0.9712	–	81
[2], 293.15 K, x2 = 0.9924	–	77
[2], 303.15 K, x2 = 0	–	366
[2], 303.15 K, x2 = 0.2259	–	294
[2], 303.15 K, x2 = 0.4351	–	236
[2], 303.15 K, x2 = 0.6152	–	189
[2], 303.15 K, x2 = 0.7835	–	140
[2], 303.15 K, x2 = 0.8614	–	118
[2], 303.15 K, x2 = 0.9353	–	97
[2], 303.15 K, x2 = 0.9712	–	83
[2], 303.15 K, x2 = 0.9924	–	78
[2], 313.15 K, x2 = 0	–	371
[2], 313.15 K, x2 = 0.2259	–	298
[2], 313.15 K, x2 = 0.4351	–	239
[2], 313.15 K, x2 = 0.6152	–	191
[2], 313.15 K, x2 = 0.7835	–	142
[2], 313.15 K, x2 = 0.8614	–	120
[2], 313.15 K, x2 = 0.9353	–	98
[2], 313.15 K, x2 = 0.9712	–	83
[2], 313.15 K, x2 = 0.9924	–	78
[2], 323.15 K, x2 = 0	–	376
[2], 323.15 K, x2 = 0.2259	–	302
[2], 323.15 K, x2 = 0.4351	–	242
[2], 323.15 K, x2 = 0.6152	–	193
[2], 323.15 K, x2 = 0.7835	–	144
[2], 323.15 K, x2 = 0.8614	–	122
[2], 323.15 K, x2 = 0.9353	–	99
[2], 323.15 K, x2 = 0.9712	–	84
[2], 323.15 K, x2 = 0.9924	–	78
[2], 333.15 K, x2 = 0	–	380
[2], 333.15 K, x2 = 0.2259	–	306
[2], 333.15 K, x2 = 0.4351	–	245
[2], 333.15 K, x2 = 0.6152	–	195
[2], 333.15 K, x2 = 0.7835	–	146
[2], 333.15 K, x2 = 0.8614	–	123
[2], 333.15 K, x2 = 0.9353	–	99
[2], 333.15 K, x2 = 0.9712	–	85
[2], 333.15 K, x2 = 0.9924	–	79
[2], 343.15 K, x2 = 0	–	384
[2], 343.15 K, x2 = 0.2259	–	311
[2], 343.15 K, x2 = 0.4351	–	249
[2], 343.15 K, x2 = 0.6152	–	197
[2], 343.15 K, x2 = 0.7835	–	148
[2], 343.15 K, x2 = 0.8614	–	125
[2], 343.15 K, x2 = 0.9353	–	100
[2], 343.15 K, x2 = 0.9712	–	85
[2], 343.15 K, x2 = 0.9924	–	79

CCOS(=O)(=O)[O-].CCn1cc[n+](C)c1 [1-ethyl-3-methylimidazolium ethyl sulfate] + O
Conditions	excess molar enthalpy [kcal/mol]	molar heat capacity at constant pressure [J/K/mol]
[1], 313.14 K, x2 = 0.2496	-0.109	–
[1], 313.14 K, x2 = 0.2497	-0.11	–
[1], 313.14 K, x2 = 0.4936	-0.183	–
[1], 313.14 K, x2 = 0.4951	-0.184	–
[1], 313.14 K, x2 = 0.7491	-0.231	–
[1], 313.14 K, x2 = 0.7495	-0.233	–
[1], 323.12 K, x2 = 0.2425	-0.116	–
[1], 323.12 K, x2 = 0.2486	-0.114	–
[1], 323.12 K, x2 = 0.4979	-0.189	–
[1], 323.12 K, x2 = 0.4991	-0.189	–
[1], 323.12 K, x2 = 0.7464	-0.221	–
[1], 323.12 K, x2 = 0.7481	-0.226	–
[1], 333.11 K, x2 = 0.2483	-0.119	–
[1], 333.11 K, x2 = 0.2496	-0.121	–
[1], 333.11 K, x2 = 0.496	-0.191	–
[1], 333.11 K, x2 = 0.4974	-0.189	–
[1], 333.11 K, x2 = 0.7476	-0.218	–
[1], 333.11 K, x2 = 0.7484	-0.218	–
[1], 348.12 K, x2 = 0.2492	-0.125	–
[1], 348.12 K, x2 = 0.2499	-0.125	–
[1], 348.12 K, x2 = 0.4948	-0.191	–
[1], 348.12 K, x2 = 0.498	-0.191	–
[1], 348.12 K, x2 = 0.7477	-0.199	–
[1], 348.12 K, x2 = 0.7483	-0.199	–
[2], 283.15 K, x2 = 0	–	365
[2], 283.15 K, x2 = 0.212	–	294
[2], 283.15 K, x2 = 0.4079	–	235
[2], 283.15 K, x2 = 0.5925	–	179
[2], 283.15 K, x2 = 0.766	–	142
[2], 283.15 K, x2 = 0.8495	–	115
[2], 283.15 K, x2 = 0.9282	–	95
[2], 283.15 K, x2 = 0.9684	–	83
[2], 283.15 K, x2 = 0.9916	–	78
[2], 293.15 K, x2 = 0	–	371
[2], 293.15 K, x2 = 0.212	–	297
[2], 293.15 K, x2 = 0.4079	–	239
[2], 293.15 K, x2 = 0.5925	–	184
[2], 293.15 K, x2 = 0.766	–	145
[2], 293.15 K, x2 = 0.8495	–	118
[2], 293.15 K, x2 = 0.9282	–	96
[2], 293.15 K, x2 = 0.9684	–	85
[2], 293.15 K, x2 = 0.9916	–	78
[2], 303.15 K, x2 = 0	–	380
[2], 303.15 K, x2 = 0.212	–	304
[2], 303.15 K, x2 = 0.4079	–	245
[2], 303.15 K, x2 = 0.5925	–	190
[2], 303.15 K, x2 = 0.766	–	149
[2], 303.15 K, x2 = 0.8495	–	122
[2], 303.15 K, x2 = 0.9282	–	98
[2], 303.15 K, x2 = 0.9684	–	86
[2], 303.15 K, x2 = 0.9916	–	79
[2], 313.15 K, x2 = 0	–	386
[2], 313.15 K, x2 = 0.212	–	309
[2], 313.15 K, x2 = 0.4079	–	249
[2], 313.15 K, x2 = 0.5925	–	193
[2], 313.15 K, x2 = 0.766	–	152
[2], 313.15 K, x2 = 0.8495	–	124
[2], 313.15 K, x2 = 0.9282	–	100
[2], 313.15 K, x2 = 0.9684	–	87
[2], 313.15 K, x2 = 0.9916	–	79
[2], 323.15 K, x2 = 0	–	392
[2], 323.15 K, x2 = 0.212	–	314
[2], 323.15 K, x2 = 0.4079	–	253
[2], 323.15 K, x2 = 0.5925	–	197
[2], 323.15 K, x2 = 0.766	–	154
[2], 323.15 K, x2 = 0.8495	–	126
[2], 323.15 K, x2 = 0.9282	–	101
[2], 323.15 K, x2 = 0.9684	–	88
[2], 323.15 K, x2 = 0.9916	–	79
[2], 333.15 K, x2 = 0	–	397
[2], 333.15 K, x2 = 0.212	–	319
[2], 333.15 K, x2 = 0.4079	–	256
[2], 333.15 K, x2 = 0.5925	–	201
[2], 333.15 K, x2 = 0.766	–	157
[2], 333.15 K, x2 = 0.8495	–	127
[2], 333.15 K, x2 = 0.9282	–	102
[2], 333.15 K, x2 = 0.9684	–	88
[2], 333.15 K, x2 = 0.9916	–	80
[2], 343.15 K, x2 = 0	–	403
[2], 343.15 K, x2 = 0.212	–	324
[2], 343.15 K, x2 = 0.4079	–	260
[2], 343.15 K, x2 = 0.5925	–	204
[2], 343.15 K, x2 = 0.766	–	158
[2], 343.15 K, x2 = 0.8495	–	129
[2], 343.15 K, x2 = 0.9282	–	103
[2], 343.15 K, x2 = 0.9684	–	89
[2], 343.15 K, x2 = 0.9916	–	80
